Earlier results on one compound are cited in patent publication US6951873B1, “Methods for treating age-related behavioral disorders in companion animals” (priority 1999, dated 2005).

The test system of this data set is aged-impaired dogs. Particulars: spatial memory model sensitive to age-dependent cognitive impairment.

For `C#CCN(C)[C@H](C)Cc1ccccc1.Cl` [selegiline chloride], the “Performance of aged-impaired dogs on this test” value is on record as “improved”.
